Tests used:
LTED cells = assay: [3H] thymidine incorporation into DNA, LTED cells; type: cell-based, human; conditions: FTS 75 μM, 18 hours
Protocol: FIGS. 5A & 5B represent the effect of FTS on DNA synthesis in MCF-7 (FIG. 5A) and LTED (FIG. 5B) cells. One hundred thousand cells were plated into each well of 24-well plates. Two days later, the cells were re-fed with IMEM containing 5% DCC-FBS. After another two days, cells were treated in quadruplicate with the compounds indicated for 18 hours. [^3H] thymidine (1 μCi/well) was added during the last 2 h of incubation. [^3H] thymidine incorporated into DNA was normalized by protein content.
The inhibitory effect of FTS on cell growth may be the result of inhibition of cellular proliferation, induction of apoptosis, or both. To determine the mechanism by which FTS inhibits cell growth, FTS's effect on DNA synthesis and apoptosis was investigated. […] Estradiol (10^−10 M) increased [^3H] thymidine incorporation by 2.6 fold compared to the control level in MCF-7 cells.

[1] = system: ERK1/2, Akt, p70S6K, PHAS-1 phosphorylation in LTED cells; assay: IGF-1 induced activation of MAP kinase, PI3 kinase and mTOR in LTED cells (Western); type: cell-based, human
Protocol: FIG. 9. represents data showing the effect of FTS on IGF-1 induced activation of MAP kinase, PI3 kinase, and mTOR in LTED cells. Subconfluent LTED cells grown in 60 mm dishes were serum starved for 24 h, pretreated with FTS (100 μM) or LY 294002 (LY, 20 μM) for 10, 30 or 60 min before addition of IGF-1 (20 ng/ml for 10 min). Cells were then harvested and cell lysates prepared. Phosphorylated and total kinases were detected by Western analysis using specific antibodies.
LTED cells were pretreated with FTS (100 μM) or LY 294002 (20 μM) for 10, 30, and 60 min and then IGF-1 (20 ng/ml) was added for 10 min. […] The inhibitory effect was seen as early as 10 minutes of treatment whereas FTS induced no effect. In marked contrast, both FTS and Ly inhibited the phosphorylation of 4E BP-1, particularly at the 60 minute time point. (FIG. 9).

mTOR = target: T1, mTOR (Rattus norvegicus, UniProt P42346); assay: Immune complex assay of mTOR activity after incubating 293T cells with compound; type: cell-based; conditions: for mTOR activity: 293T cells incubated with increasing concentrations
T1 construct: expressed in transfected cells; host or cells: 293T
Protocol: (§1) FIGS. 12A & 12B represent data showing the effects of incubating cells with increasing concentrations of FTS and GTS on mTOR activity and mTOR association with raptor and mLST8. AU1-mTOR, HA-raptor, and HAmLST8 were overexpressed in 293T cells. The cells were then incubated for 1 h with increasing concentrations of FTS (●, ▴, ▪) or GTS (∘, Δ, □) before extracts were prepared. Immunoprecipitations were then conducted with anti-AU1 antibodies. mTOR kinase activity (●, ∘) was determined by measuring ^32P incorporation into [His^6]PHAS-I in immune complex kinases assays performed with [γ-^32P]ATP. The relative amounts of HA-raptor (▴, Δ) and HA-mLST8 (▪, □) that coimmunoprecipitated with AU1-mTOR were determined after immunoblotting with anti-HA antibodies. The results (mean values±S.E. from 3 experiments) are expressed as percentages of the mTOR activity (FIG. 12A) or coimmunoprecipitating proteins (FIG. 12B) from samples incubated without FTS or GTS, and have been corrected for the amounts of AU1-mTOR immunoprecipitated.
FIG. 12A presents results of immune complex kinases assays with AU1-mTOR from extracts of 293T cells that had been incubated with increasing concentrations of FTS.
Immune complex assay of mTOR activity—AU1-mTOR was immunoprecipitated by using anti-AU1 antibody bound to protein G-agarose beads as described previously (McMahon, et al., (2002) Mol. Cell. Biol. 22, 7428-7438). Endogenous mTOR was immunoprecipitated in the same manner, except that mTAb1 was used instead of anti-AU1 antibody. To measure kinase activity, exhaustively washed immune complexes were suspended in 20 μl of Buffer A (50 mM NaCl, 0.1 mM EGTA, 1 mM dithiothreitol (DTT), […], 10 mM Na-HEPES, and 50 mM β-glycerophosphate, pH 7.4.). The kinase reactions were initiated by adding 20 μl of Buffer A supplemented with 2 mM [γ-^32P]ATP, 20 mM MnCl2 and 40 μg/ml of [His^6]PHAS-I. In experiments in which the effects of wortmannin were investigated, DTT was omitted from the reactions, and [His^6]PHAS-I that had been reduced and alkylated with N-ethylmaleimide was used as substrate. Reactions were terminated after 10 min at 30° by adding SDS sample buffer. Samples were subjected to SDS-PAGE and the relative amounts of ^32P incorporated into [His^6]PHAS-I were determined.

mTOR-mLST8 = assay: Coimmunoprecipitation of mLST8 with mTOR from 293T cells incubated with compound; type: cell-based; conditions: overexpressed in 293T cells, 1 h
Protocol: FIG. 11A & 11B represent data showing FTS inhibits PHAS-I phosphorylation and promotes dissociation of the mTOR-raptor complex in 293T cells. 293T cells were transfected with pcDNA3AU1-mTOR, pcDNA33HARaptor, pcDNA33HA-mLST8, and pCMV-Tag3APHAS-I (FIG. 11A). After 18 h the cells were incubated for 1 h with increasing concentrations of FTS before extracts were prepared. A sample of each extract was subjected to SDS-PAGE and immunoblotted to detect PHAS-I or PThr^36/45. AU1-mTOR was also immunoprecipitated from each extract, and immune complexes were subjected to SDSPAGE and immunoblotted with mTAb2, to detect mTOR, and with anti-HA antibodies, to detect HA-mLST8 and HA-raptor. Nontransfected 293T cells were incubated with increasing concentrations of FTS for 1 h before extracts were prepared. mTOR was immunoprecipitated with mTAb1, and samples were subjected to SDS-PAGE.
as §1
To investigate further the inhibitory effects of FTS on mTOR signaling, the effect of the drug on the association of mTOR, raptor, and mLST8 was determined. […]

Structure (SMILES)	[3H] thymidine incorporated into DNA (LTED cells)	IGF-1 induced ERK1/2 phosphorylation ([1]; FTS 100 μM or LY 294002 20 μM for 10, 30, 60 min, IGF-1 20 ng/ml 10 min)	phosphorylation of 4E BP-1 ([1]; FTS 100 μM or LY 294002 20 μM, particularly at 60 minute time point)	IGF-1 induced phosphorylation of Akt at Ser473 and p70S6K at Thr389 ([1]; FTS 100 μM or LY 294002 20 μM, IGF-1 20 ng/ml 10 min)	IC50 (mTOR; 293T cells incubated 1 h, read-out: half maximal effect on inhibition of AU1-mTOR activity) [µM]	mTOR activity (mTOR)	amount of HA-mLST8 associated with AU1-mTOR (mTOR-mLST8)
CC(C)=CCC/C(C)=C/CC/C(C)=C/CSc1ccccc1C(=O)O [FTS, farnesylthiosalicylic acid]	significantly reduced	Neither FTS nor LY 294002 inhibited	inhibited	no effect	20 to 30	stable decrease in mTOR activity	did not appear to change
CC(C)=CCC/C(C)=C/CSc1ccccc1C(=O)O [GTS, S-geranylthiosalicylic acid, reference compound]	–	–	–	–	–	slightly decreased	relatively little effect

From patent US20070037887A1, “Blockade of mtor to prevent a hormonal adaptive response” (University of Virginia Patent Foundation, priority 2003, published 2007)
